Read-outs that look alike come from different tables or passages of the source.
Molecular target: T1, human TGR5 (h-TGR5) (Homo sapiens, UniProt Q8TDU6)
T1 construct: expressed in transfected cells
T1 sequence (Q8TDU6 1-330): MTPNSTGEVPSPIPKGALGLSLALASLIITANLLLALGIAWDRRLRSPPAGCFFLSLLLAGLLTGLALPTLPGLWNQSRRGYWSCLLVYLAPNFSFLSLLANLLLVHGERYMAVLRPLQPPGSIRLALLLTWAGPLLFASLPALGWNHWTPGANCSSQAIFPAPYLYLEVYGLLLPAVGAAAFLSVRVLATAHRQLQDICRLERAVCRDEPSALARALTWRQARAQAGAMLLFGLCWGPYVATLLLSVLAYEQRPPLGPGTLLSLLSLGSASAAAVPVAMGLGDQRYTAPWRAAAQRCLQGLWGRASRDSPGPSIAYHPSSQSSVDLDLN
Assay: TGR5/CRE-Luciferiase Assay (HEK 293 hTGR5/CRE-Luc cells)
Type: cell-based
Procedure: Compounds were serially diluted in DMEM containing 5% DMSO and 5 μL of compound or media alone was transferred to each well and plates were incubated for 6 hours. Following incubation, 30 μL of lysis/luciferase buffer was added to each well. The luciferase activity was then measured on the EnVision™ plate reader and the dose response data was analyzed using ActivityBase.
In the following tables, EC50 values determined according to the TGR5 cAMP Assay described herein (cAMP); EC50 values determined according to the TGR5/CRE-Luciferiase Assay described herein (CRE-Luc). […] The following compounds in Tables 1 and 2 were made by using procedures described in the above Schemes and Examples, and, where applicable, by making any necessary substitutions of known materials that one skilled in the art would ordinarily understand how to do.

[1] = h-TGR5 CRE-Luc EC50, Table 1, read-out: CRE-Luc (EC50)

SMILES	EC50 [1] [µM]	EC50 (HEK 293 hTGR5/CRE-Luc cells, 6 hours incubation, luciferase activity, Table 2, read-out: h-TGR5CRE-Luc EC50 (CRE-Luc)) [µM]
CC(C)(c1ccc(Cl)c(Cl)c1)c1cnc(COc2ccc(Cl)c(S(N)(=O)=O)c2)n1-c1ccc(F)cc1 [2-chloro-5-[({5-[1-(3,4-dichlorophenyl)-1-methylethyl]-1-(4-fluorophenyl)-1H-imidazol-2-yl}methyl)oxy]benzenesulfonamide]	0.1 to 1	
CC(C)(c1ccc(Cl)c(Cl)c1)c1cnc(C2CCN(S(C)(=O)=O)CC2)n1-c1ccc(F)cc1 [4-{5-[1-(3,4-dichlorophenyl)-1-methylethyl]-1-(4-fluorophenyl)-1H-imidazol-2-yl}-1-(methylsulfonyl)piperidine]	1 to 10	
CC(C)(c1ccc(Cl)c(Cl)c1)c1cnc(SCc2c(F)cccc2Cl)n1-c1ccc(Cl)cc1Cl [2-{[(2-chloro-6-fluorophenyl)methyl]thio}-1-(2,4-dichlorophenyl)-5-[1-(3,4-dichlorophenyl)-1-methylethyl]-1H-imidazole]	1 to 10	
CC(C)(c1ccc(Cl)c(Cl)c1)c1cnc(SCc2c(F)cccc2Cl)n1C1CCCC1 [2-{[(2-chloro-6-fluorophenyl)methyl]thio}-1-cyclopentyl-5-[1-(3,4-dichlorophenyl)-1-methylethyl]-1H-imidazole]	1 to 10	
COCCNC(=O)c1cc(CSc2ncc(C(C)(C)c3ccc(Cl)c(Cl)c3)n2-c2ccc(F)cc2)ccc1F [5-[({5-[1-(3,4-dichlorophenyl)-1-methylethyl]-1-(4-fluorophenyl)-1H-imidazol-2-yl}thio)methyl]-2-fluoro-N-[2-(methyloxy)ethyl]benzamide]	0.1 to 1	
CC(C)(c1ccc(Cl)c(Cl)c1)c1cnc(S(=O)(=O)Cc2ccc(F)c(Cl)c2)n1-c1ccc(F)cc1 [2-{[(3-chloro-4-fluorophenyl)methyl]sulfonyl}-5-[1-(3,4-dichlorophenyl)-1-methylethyl]-1-(4-fluorophenyl)-1H-imidazole]	0.1 to 1	
CC(C)(c1ccc(Cl)c(Cl)c1)c1cnc(SCc2ccc(C(=O)NCC(F)(F)F)cc2F)n1-c1ccc(F)cc1 [4-[({5-[1-(3,4-dichlorophenyl)-1-methylethyl]-1-(4-fluorophenyl)-1H-imidazol-2-yl}thio)methyl]-3-fluoro-N-(2,2,2-trifluoroethyl)benzamide]	0.1 to 1	
CC(C)(c1ccc(Cl)c(Cl)c1)c1cnc(SCc2ccc(Cl)c(C(=N)N)c2)n1-c1ccc(F)cc1 [2-chloro-5-[({5-[1-(3,4-dichlorophenyl)-1-methylethyl]-1-(4-fluorophenyl)-1H-imidazol-2-yl}thio)methyl]benzenecarboximidamide]	1 to 10	
CC(C)(c1ccc(Cl)c(Cl)c1)c1cnc(SCc2c(F)cccc2Cl)n1-c1ccc(F)cc1Cl [1-(2-chloro-4-fluorophenyl)-2-{[(2-chloro-6-fluorophenyl)methyl]thio}-5-[1-(3,4-dichlorophenyl)-1-methylethyl]-1H-imidazole]	0.1 to 1	
CC(C)(C)OC(=O)N1CCC(OCc2ncc(C(C)(C)c3ccc(Cl)c(Cl)c3)n2-c2ccc(F)cc2)CC1 [1,1-dimethylethyl 4-[({5-[1-(3,4-dichlorophenyl)-1-methylethyl]-1-(4-fluorophenyl)-1H-imidazol-2-yl}methyl)oxy]piperidine-1-carboxylate]	1 to 10	
COc1ccc(Cc2nnc(SCc3cccc(C(F)(F)F)c3F)n2-c2ccc(F)cc2)cc1OC [Example 30]		< 0.1
CC(C)(c1ccc(OC(F)(F)F)c(Cl)c1)c1cnc(SCc2ccc(F)cc2Cl)n1-c1ccc(F)cc1 [2-{[(2-chloro-4-fluorophenyl)methyl]thio}-5-(1-{3-chloro-4-[(trifluoromethyl)oxy]phenyl}-1-methylethyl)-1-(4-fluorophenyl)-1H-imidazole]	1 to 10	
CC(C)(c1ccc(Cl)c(Cl)c1)c1cnc(COc2ccc(Cl)cn2)n1-c1ccc(F)cc1 [5-chloro-2-[({5-[1-(3,4-dichlorophenyl)-1-methylethyl]-1-(4-fluorophenyl)-1H-imidazol-2-yl}methyl)oxy]pyridine]	0.1 to 1	
Fc1ccc(-n2c(Cc3ccc(F)c(F)c3)cnc2SCc2ccc(F)cc2Cl)cc1 [2-{[(2-chloro-4-fluorophenyl)methyl]thio}-5-[(3,4-difluorophenyl)methyl]-1-(4-fluorophenyl)-1H-imidazole]	0.1 to 1	
CC1CCc2cc(F)ccc2N1S(=O)(=O)c1ncc(C(C)(C)c2ccc(Cl)c(Cl)c2)n1-c1ccc(F)cc1 (stereo not drawn) [1-({5-[1-(3,4-dichlorophenyl)-1-methylethyl]-1-(4-fluorophenyl)-1H-imidazol-2-yl}sulfonyl)-6-fluoro-2-methyl-1,2,3,4-tetrahydroquinoline]	1 to 10	

Results, then the molecule that gave them:

EC50 [1] [µM]	EC50 (HEK 293 hTGR5/CRE-Luc cells, 6 hours incubation, luciferase activity, Table 2, read-out: h-TGR5CRE-Luc EC50 (CRE-Luc)) [µM]	SMILES
< 0.1		CC(C)(c1ccc(Cl)c(Cl)c1)c1cnc(SCC2CCN(S(C)(=O)=O)CC2)n1-c1ccc(F)c(F)c1 [4-[({5-[1-(3,4-dichlorophenyl)-1-methylethyl]-1-(3,4-difluorophenyl)-1H-imidazol-2-yl}thio)methyl]-1-(methylsulfonyl)piperidine]
0.1 to 1		CC(C)(c1ccc(Cl)c(Cl)c1)c1cnc(SCc2ccc(C(=O)O)c(F)c2)n1-c1ccc(F)cc1 [4-[({5-[1-(3,4-dichlorophenyl)-1-methylethyl]-1-(4-fluorophenyl)-1H-imidazol-2-yl}thio)methyl]-2-fluorobenzoic acid]
< 0.1		CC(C)(c1ccc(Cl)c(F)c1)c1cnc(SCc2c(F)cccc2Cl)n1-c1ccc(F)cc1 [5-[1-(4-chloro-3-fluorophenyl)-1-methylethyl]-2-{[(2-chloro-6-fluorophenyl)methyl]thio}-1-(4-fluorophenyl)-1H-imidazole]
0.1 to 1		CC(C)(c1ccc(Cl)c(Cl)c1)c1cnc(SCc2ccc(Cl)c(C(=O)O)c2)n1-c1ccc(F)cc1 [2-chloro-5-[({5-[1-(3,4-dichlorophenyl)-1-methylethyl]-1-(4-fluorophenyl)-1H-imidazol-2-yl}thio)methyl]benzoic acid]
< 0.1		COc1c(Cl)cc(C(C)(C)c2cnc(SCc3ccc(S(N)(=O)=O)cc3F)n2-c2ccc(F)cc2)cc1Cl [4-({[5-{1-[3,5-dichloro-4-(methyloxy)phenyl]-1-methylethyl}-1-(4-fluorophenyl)-1H-imidazol-2-yl]thio}methyl)-3-fluorobenzenesulfonamide]
0.1 to 1		CC(C)(c1ccc(Cl)c(Cl)c1)c1cnc(SCc2ccc(F)c(CO)c2)n1-c1ccc(F)cc1 [{5-[({5-[1-(3,4-dichlorophenyl)-1-methylethyl]-1-(4-fluorophenyl)-1H-imidazol-2-yl}thio)methyl]-2-fluorophenyl}methanol]
0.1 to 1		CCN(CC)CCOc1ccc(CSc2ncc(C(C)(C)c3ccc(Cl)c(Cl)c3)n2-c2ccc(F)cc2)cc1-c1nnn[nH]1 [2-({4-[({5-[1-(3,4-dichlorophenyl)-1-methylethyl]-1-(4-fluorophenyl)-1H-imidazol-2-yl}thio)methyl]-2-(1H-tetrazol-5-yl)phenyl}oxy)-N,N-diethylethanamine]
< 0.1		COc1ccc(C(C)(C)c2cnc(CNc3ccc(Cl)c(Cl)c3)n2-c2ccc(F)cc2)cc1OC [N-{[5-{1-[3,4-bis(methyloxy)phenyl]-1-methylethyl}-1-(4-fluorophenyl)-1H-imidazol-2-yl]methyl}-3,4-dichloroaniline]
< 0.1		COc1ccc(C(C)(C)c2cnc(S(=O)(=O)CCc3ccc(F)c(Cl)c3)n2-c2ccc(F)cc2)cc1OC [5-{1-[3,4-bis(methyloxy)phenyl]-1-methylethyl}-2-{[2-(3-chloro-4-fluorophenyl)ethyl]sulfonyl}-1-(4-fluorophenyl)-1H-imidazole]

Reference: patent US8785488B2 (Exelixis Patent Company LLC, priority 2009, dated 2014)
